Experiments:
[1] = Particle size distribution by optical microscopy (diameter of the coextensive circle); type: physicochemical
Experimental: Two different methods were used to incorporate triptorelin into the hexyl substituted polylactide polymer. The first was a “separate milling and mixing” method in which the triptorelin was micronized using an SPEX 6700 Freezer/mill at −196° C. in liquid nitrogen (milling for 5 min), the resulting micronized powder being mixed with the hexyl substituted polylactide polymer by kneading in plastic bags until a homogeneous formulation was obtained (as verified by optical microscopy).
In the second method, lyophilised triptorelin (10% by weight of polymer or 5% by weight polymer or 2.5% by weight polymer) was incorporated into the polymer by a combined direct “cryo-milling-mixing” technique. The triptorelin was micronized together with the polymer in a cryo-mill (SPEX 6700 Freezer/mill) at −196 C for five minutes in liquid nitrogen. The particle size distribution in the formulations was analysed using an Optishot-2 microscope (Nikon, Tokyo, Japan) and ImageJ software.
The kneading provided a homogenous suspension (FIG. 1a) although the average diameter increased to 9.0 μm because some larger particles of more than 30 μm were formed due to agglomeration.

[2] = Solubility of triptorelin in hexyl substituted polylactide polymer; type: physicochemical
Source text: Triptorelin is not soluble in the hexyl substituted polylactide polymer (which is a viscous liquid) because of its relatively high hydrophilicity. The lyophilized triptorelin was therefore micronized, by cryomilling or spray-drying, to ensure small particle size for incorporation into the polymer. Preferably the triptorelin (or salt/derivative thereof) is micronized/mixed with the polylactide at a temperature below the glass transition temperature of the polylactide, more preferably at temperature of around −196° C., so as to avoid melting and resulting increased viscosity of the polylactide.

CC(C)C[C@H](NC(=O)[C@@H](Cc1c[nH]c2ccccc12)NC(=O)[C@H](Cc1ccc(O)cc1)NC(=O)[C@H](CO)NC(=O)[C@H](Cc1c[nH]c2ccccc12)NC(=O)[C@H](Cc1c[nH]cn1)NC(=O)[C@@H]1CCC(=O)N1)C(=O)N[C@@H](CCCNC(=N)N)C(=O)N1CCC[C@H]1C(=O)NCC(N)=O [Triptorelin, L-Pyroglutamyl-L-histidyl-Ltryptophyl-L-seryl-L-tyrosyl-D-tryptophyl-L-eucy-L-arginy-L-prolyl-glycinamide]
average diameter for the coextensive circle [1]: 5.6 μm | solubility in the hexyl substituted polylactide polymer [2]: not soluble
